Results reported in US20240368150A1 (Hoffmann-La Roche Inc., priority 2021, published 2024).
Read-outs that look alike come from different tables or passages of the source.

How the values were obtained:
primary human T-cells [1] = test system: primary human T-cells
primary human T-cells [2] = assay: Proliferation assay after 5 days (CellTiter-Glo, CD3 stimulation; PBS counter screen); type: cell-based; details: T-cell, 120 h, CD3 stimulation; for Emax: 5 days, normalized to reference compound A1 as stimulator control = 100%, DMSO neutral control, read-out: Emax proliferation (% activation); for EC50: primary human T-cells, CellTiter-Glo after 5 days, EC50 of fitted sigmoidal curve, read-out: Tcell Proliferation CD3 EC50
Summary of the method: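 Proliferation is measured 5 days post-treatment as ATP-dependent luminescence. Flags mark compounds that activated unstimulated cells or harmed viability.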

Structure (SMILES) | EC50 (primary human T-cells [1]) [nM] | Emax (primary human T-cells [2]; Homo sapiens) [%] | EC50 (primary human T-cells [2]; Homo sapiens) [nM] | EC50 (primary human T-cells [2]) [nM]
CC(C)(C)NC(=O)c1nc(-c2ccc3c(c2)N(Cc2ccc(Cl)cc2)C(=O)[C@@H](N)CS3(=O)=O)no1 [Example 354, 3-[(3R)-3-amino-5-[(4-chlorophenyl)methyl]-1,1,4-trioxo-2,3-dihydro-1λ^6,5-benzothiazepin-7-yl]-N-tert-butyl-1,2,4-oxadiazole-5-carboxamide] | > 10000 | 77 | 4710 | 
CC(C)(C)NC(=O)c1nc(-c2ccc3c(c2)N(Cc2ccc(OC(F)(F)F)cc2)C(=O)[C@@H](N)CS3(=O)=O)no1 [Example 355, 3-[(3R)-3-amino-1,1,4-trioxo-5-[[4-(trifluoromethoxy)phenyl]methyl]-2,3-dihydro-1λ^6,5-benzothiazepin-7-yl]-N-tert-butyl-1,2,4-oxadiazole-5-carboxamide] | 6050 | 65 | 1620 | 
CC(C)(F)c1nc(-c2cc3c(cc2F)S(=O)(=O)C[C@H](N)C(=O)N3Cc2ccc(F)cc2)no1 [Example 358, (3R)-3-amino-8-fluoro-7-[5-(1-fluoro-1-methyl-ethyl)-1,2,4-oxadiazol-3-yl]-5-[(4-fluorophenyl)methyl]-1,1-dioxo-2,3-dihydro-1λ^6,5-benzothiazepin-4-one] | 9450 | 127 | 1860 | 
C#CCC(C)(C)c1nnc(-c2cc3c(cc2F)S(=O)(=O)C[C@H](N)C(=O)N3Cc2ccc(C3(C(F)(F)F)N=N3)cc2)o1 [Example 359, (3R)-3-amino-7-[5-(1,1-dimethylbut-3-ynyl)-1,3,4-oxadiazol-2-yl]-8-fluoro-1,1-dioxo-5-[[4-[3-(trifluoromethyl)diazirin-3-yl]phenyl]methyl]-2,3-dihydro-1λ^6,5-benzothiazepin-4-one] | 208 | 115 | 81.7 | 
N[C@H]1CS(=O)(=O)c2ccc(-c3nnc(C(F)(F)C(F)(F)F)o3)cc2N(Cc2ccc(Cl)cc2)C1=O [Example 363, (3R)-3-amino-5-[(4-chlorophenyl)methyl]-1,1-dioxo-7-[5-(1,1,2,2,2-pentafluoroethyl)-1,3,4-oxadiazol-2-yl]-2,3-dihydro-1λ^6,5-benzothiazepin-4-one] | 2170 | 50 |  | > 10000
N[C@H]1CS(=O)(=O)c2ccc(-c3nnc(C(F)C(F)(F)F)o3)cc2N(Cc2ccc(Cl)cc2)C1=O (stereo partly drawn) [Example 369, (3R)-3-amino-5-[(4-chlorophenyl)methyl]-1,1-dioxo-7-[5-(1,2,2,2-tetrafluoroethyl)-1,3,4-oxadiazol-2-yl]-2,3-dihydro-1λ^6,5-benzothiazepin-4-one] | 1700 | 114 |  | 466
COC1(c2nnc(-c3ccc4c(c3)N(Cc3ccc(Cl)cc3)C(=O)[C@@H](N)CS4(=O)=O)o2)CCOCC1 [Example 371, (3R)-3-amino-5-[(4-chlorophenyl)methyl]-7-[5-(4-methoxytetrahydropyran-4-yl)-1,3,4-oxadiazol-2-yl]-1,1-dioxo-2,3-dihydro-1λ^6,5-benzothiazepin-4-one] | > 10000 | 84 | 2760 | 
N[C@H]1CS(=O)(=O)c2ccc(-c3nnc(-c4ccccc4)o3)cc2N(Cc2ccc(Cl)cc2)C1=O [Example 374, (3R)-3-amino-5-[(4-chlorophenyl)methyl]-1,1-dioxo-7-(5-phenyl-1,3,4-oxadiazol-2-yl)-2,3-dihydro-1λ^6,5-benzothiazepin-4-one] | 15100 | 52 | > 10000 | 
N[C@H]1CS(=O)(=O)c2ccc(-c3nnc(-c4ccc(F)cc4)o3)cc2N(Cc2ccc(Cl)cc2)C1=O [Example 375, (3R)-3-amino-5-[(4-chlorophenyl)methyl]-7-[5-(4-fluorophenyl)-1,3,4-oxadiazol-2-yl]-1,1-dioxo-2,3-dihydro-1λ^6,5-benzothiazepin-4-one] | 461 | 62 | 817 | 
N[C@H]1CS(=O)(=O)c2ccc(-c3nnc(-c4ccccc4F)o3)cc2N(Cc2ccc(Cl)cc2)C1=O [Example 376, (3R)-3-amino-5-[(4-chlorophenyl)methyl]-7-[5-(2-fluorophenyl)-1,3,4-oxadiazol-2-yl]-1,1-dioxo-2,3-dihydro-1λ^6,5-benzothiazepin-4-one] | 3200 | 70 | 4460 | 
Cc1ccc(-c2nnc(-c3ccc4c(c3)N(Cc3ccc(Cl)cc3)C(=O)[C@@H](N)CS4(=O)=O)o2)cc1 [Example 377, (3R)-3-amino-5-[(4-chlorophenyl)methyl]-1,1-dioxo-7-[5-(p-tolyl)-1,3,4-oxadiazol-2-yl]-2,3-dihydro-1λ^6,5-benzothiazepin-4-one] | 1720 | 38 | 319 | 
COC1(c2nnc(-c3ccc4c(c3)N(Cc3ccc(Cl)cc3)C(=O)[C@@H](N)CS4(=O)=O)o2)CCC(F)(F)CC1 [Example 378, (3R)-3-amino-5-[(4-chlorophenyl)methyl]-7-[5-(4,4-difluoro-1-methoxy-cyclohexyl)-1,3,4-oxadiazol-2-yl]-1,1-dioxo-2,3-dihydro-1λ^6,5-benzothiazepin-4-one] | > 10000 | 74 | 447 | 
CC1(c2nnc(-c3ccc4c(c3)N(Cc3ccc(Cl)cc3)C(=O)[C@@H](N)CS4(=O)=O)o2)CCN(C(=O)OCC(F)(F)F)CC1 [Example 382, 2,2,2-trifluoroethyl 4-[5-[(3R)-3-amino-5-[(4-chlorophenyl)methyl]-1,1,4-trioxo-2,3-dihydro-1λ^6,5-benzothiazepin-7-yl]-1,3,4-oxadiazol-2-yl]-4-methyl-piperidine-1-carboxylate] | 1680 | 100 | 893 | 

The next lines start with results.

EC50 (primary human T-cells [1]) [nM] | Structure (SMILES) | Emax (primary human T-cells [2]; Homo sapiens) [%] | EC50 (primary human T-cells [2]; Homo sapiens) [nM] | EC50 (primary human T-cells [2]) [nM]
922 | CC(C)(C)c1nnc(-c2ccc3c(c2)N(Cc2ccc(OC(F)(F)F)cc2)C(=O)[C@@H](N)CS3(=O)=O)o1 [Example 360, (3R)-3-amino-7-(5-tert-butyl-1,3,4-oxadiazol-2-yl)-1,1-dioxo-5-[[4-(trifluoromethoxy)phenyl]methyl]-2,3-dihydro-1λ^6,5-benzothiazepin-4-one] | 103 | 384 | 
1730 | CC(N)(c1nnc(-c2ccc3c(c2)N(Cc2ccc(Cl)cc2)C(=O)[C@@H](N)CS3(=O)=O)o1)C(F)(F)F (stereo partly drawn) [Example 362, (3R)-3-amino-7-[5-(1-amino-2,2,2-trifluoro-1-methyl-ethyl)-1,3,4-oxadiazol-2-yl]-5-[(4-chlorophenyl)methyl]-1,1-dioxo-2,3-dihydro-1λ^6,5-benzothiazepin-4-one] | 84 | 3720 | 
981 | CC(C)(C#N)c1nnc(-c2ccc3c(c2)N(Cc2ccc(Cl)cc2)C(=O)[C@@H](N)CS3(=O)=O)o1 [Example 364, 2-[5-[(3R)-3-amino-5-[(4-chlorophenyl)methyl]-1,1,4-trioxo-2,3-dihydro-1λ^6,5-benzothiazepin-7-yl]-1,3,4-oxadiazol-2-yl]-2-methyl-propanenitrile] | 108 | 928 | 
957 | COC1(c2nnc(-c3ccc4c(c3)N(Cc3ccc(Cl)cc3)C(=O)[C@@H](N)CS4(=O)=O)o2)CC1 [Example 365, (3R)-3-amino-5-[(4-chlorophenyl)methyl]-7-[5-(1-methoxycyclopropyl)-1,3,4-oxadiazol-2-yl]-1,1-dioxo-2,3-dihydro-1λ^6,5-benzothiazepin-4-one] | 142 | 686 | 
584 | N[C@H]1CS(=O)(=O)c2ccc(-c3nnc(C4(C(F)(F)F)CC4)o3)cc2N(Cc2ccc(Cl)cc2)C1=O [Example 366, (3R)-3-amino-5-[(4-chlorophenyl)methyl]-1,1-dioxo-7-[5-[1-(trifluoromethyl)cyclopropyl]-1,3,4-oxadiazol-2-yl]-2,3-dihydro-1λ^6,5-benzothiazepin-4-one] | 106 | 677 | 
576 | CC(C#N)c1nnc(-c2ccc3c(c2)N(Cc2ccc(Cl)cc2)C(=O)[C@@H](N)CS3(=O)=O)o1 (stereo partly drawn) [Example 367, 2-[5-[(3R)-3-amino-5-[(4-chlorophenyl)methyl]-1,1,4-trioxo-2,3-dihydro-1λ^6,5-benzothiazepin-7-yl]-1,3,4-oxadiazol-2-yl]propanenitrile] | 87 | 3690 | 
5550 | COC(C)(C)c1nnc(-c2ccc3c(c2)N(Cc2ccc(Cl)cc2)C(=O)[C@@H](N)CS3(=O)=O)o1 [Example 368] | 103 | 6560 | 
5100 | COC(C#N)c1nnc(-c2ccc3c(c2)N(Cc2ccc(Cl)cc2)C(=O)[C@@H](N)CS3(=O)=O)o1 (stereo partly drawn) [Example 370, 2-[5-[(3R)-3-amino-5-[(4-chlorophenyl)methyl]-1,1,4-trioxo-2,3-dihydro-1λ^6,5-benzothiazepin-7-yl]-1,3,4-oxadiazol-2-yl]-2-methoxy-acetonitrile] | 31 | > 10000 | 
1290 | COC(C)(c1nnc(-c2ccc3c(c2)N(Cc2ccc(Cl)cc2)C(=O)[C@@H](N)CS3(=O)=O)o1)C(F)(F)F (stereo partly drawn) [Example 372, (3R)-3-amino-5-[(4-chlorophenyl)methyl]-1,1-dioxo-7-[5-(2,2,2-trifluoro-1-methoxy-1-methyl-ethyl)-1,3,4-oxadiazol-2-yl]-2,3-dihydro-1λ^6,5-benzothiazepin-4-one] | 118 | 367 | 
819 | [2H]C([2H])([2H])C(c1nnc(-c2ccc3c(c2)N(Cc2ccc(Cl)cc2)C(=O)[C@@H](N)CS3(=O)=O)o1)(C([2H])([2H])[2H])C([2H])([2H])[2H] [Example 380, (3R)-3-amino-5-[(4-chlorophenyl)methyl]-1,1-dioxo-7-[5-[2,2,2-trideuterio-1,1-bis(trideuteriomethyl)ethyl]-1,3,4-oxadiazol-2-yl]-2,3-dihydro-1λ^6,5-benzothiazepin-4-one] | 132 | 613 | 
